Results published in ChEMBL document CHEMBL1201862, “PubChem BioAssay data set” (2004).
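Where inhibition never reached the appropriate level, the endpoint shown equals the highest concentration tested. Otherwise, values were interpolated linearly from a five-concentration, 48-hour dose response in 96-well plates. Here, GI50 denotes the concentration required for 50% inhibition of growth.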 Active and inactive are the calls of the source. No stated cut-off is given here; in the data, active = GI50 up to about 1.1 µM and inactive = higher.

Key:
Experiment in all cases: NCI-60 cell line screen, 48 h
OVCAR-3 = system: OVCAR-3
A498 = system: A498
SNB-75 = system: SNB-75
RPMI-8226 = system: RPMI-8226
786-0 = system: 786-0
CAKI-1 = system: CAKI-1
IGROV-1 = system: IGROV-1
UO-31 = system: UO-31
NCI-H23 = system: NCI-H23
SF-268 = system: SF-268
UACC-62 = system: UACC-62
HT-29 = system: HT-29
COLO 205 = system: COLO 205
SN12C = system: SN12C
OVCAR-4 = system: OVCAR-4
ACHN = system: ACHN
DU-145 = system: DU-145
SW-620 = system: SW-620
MDA-N = system: MDA-N
HCT-116 = system: HCT-116
MDA-MB-435 = system: MDA-MB-435
M14 = system: M14
SF-295 = system: SF-295
HCC 2998 = system: HCC 2998
EKVX = system: EKVX
RXF 393 = system: RXF 393
Malme-3M = system: Malme-3M
SK-MEL-5 = system: SK-MEL-5
MDA-MB-231 = system: MDA-MB-231
MOLT-4 = system: MOLT-4
SK-OV-3 = system: SK-OV-3
Hs-578T = system: Hs-578T
SF-539 = system: SF-539
SR = system: SR
T47D = system: T47D
MCF7 = system: MCF7
OVCAR-5 = system: OVCAR-5
KM12 = system: KM12
LOX IMVI = system: LOX IMVI
SNB-19 = system: SNB-19
NCI-H226 = system: NCI-H226
NCI/ADR-RES = system: NCI/ADR-RES
TK-10 = system: TK-10
BT-549 = system: BT-549
SK-MEL-2 = system: SK-MEL-2
HOP-62 = system: HOP-62
HCT-15 = system: HCT-15
UACC-257 = system: UACC-257
NCI-H460 = system: NCI-H460
PC-3 = system: PC-3
SK-MEL-28 = system: SK-MEL-28
U-251 = system: U-251
A549 = system: A549
K562 = system: K562
NCI-H522 = system: NCI-H522
HOP-92 = system: HOP-92
OVCAR-8 = system: OVCAR-8
CCRF-CEM = system: CCRF-CEM

Measured: GI50

Cc1ccc(C)c(/C(=N\N=C(N)N)C2CC2)c1
inactive: OVCAR-3 94.6 µM | A498 47.5 µM | SNB-75 37.5 µM | RPMI-8226 28.8 µM | 786-0 37 µM | CAKI-1 > 100 µM | IGROV-1 32.7 µM | UO-31 59.8 µM | NCI-H23 20.7 µM | SF-268 39.5 µM | UACC-62 35.6 µM | HT-29 29.3 µM | COLO 205 35.1 µM | SN12C 56 µM | OVCAR-4 > 100 µM | ACHN 42.7 µM | DU-145 58.9 µM | SW-620 33.1 µM | MDA-N 23.4 µM | HCT-116 26.4 µM | MDA-MB-435 22.8 µM | M14 39.6 µM | SF-295 42.6 µM | HCC 2998 20.4 µM | EKVX 43.9 µM | RXF 393 > 100 µM | Malme-3M 41.5 µM | SK-MEL-5 36.2 µM | MDA-MB-231 63.4 µM | MOLT-4 35.2 µM | SK-OV-3 > 100 µM | Hs-578T 26.1 µM | SF-539 32.3 µM | SR 37.6 µM | T47D 45.5 µM | MCF7 47.8 µM | OVCAR-5 29.9 µM | KM12 39.9 µM | LOX IMVI 32.4 µM | SNB-19 48.9 µM | NCI-H226 31.7 µM | NCI/ADR-RES 58.1 µM | TK-10 34 µM | BT-549 25.5 µM | SK-MEL-2 50.8 µM | HOP-62 35.8 µM | UACC-257 31.6 µM | NCI-H460 18.1 µM | PC-3 48.5 µM | SK-MEL-28 35 µM | U-251 17.4 µM | A549 43.3 µM | K562 20.5 µM | NCI-H522 28.6 µM | HOP-92 47.2 µM | OVCAR-8 46.6 µM
48.6 µM: HCT-15

O=c1c2cc(Br)ccc2oc2nc3n(c(=O)c12)CCCS3
inactive: OVCAR-3 > 100 µM | A498 > 100 µM | SNB-75 > 100 µM | RPMI-8226 > 100 µM | 786-0 > 100 µM | CAKI-1 > 100 µM | IGROV-1 > 100 µM | UO-31 39.2 µM | NCI-H23 > 100 µM | SF-268 > 100 µM | UACC-62 > 100 µM | COLO 205 > 100 µM | SN12C > 100 µM | OVCAR-4 > 100 µM | ACHN > 100 µM | DU-145 > 100 µM | SW-620 > 100 µM | MDA-N > 100 µM | HCT-116 > 100 µM | MDA-MB-435 > 100 µM | M14 > 100 µM | SF-295 > 100 µM | HCC 2998 > 100 µM | EKVX > 100 µM | RXF 393 > 100 µM | Malme-3M > 100 µM | SK-MEL-5 47.5 µM | MDA-MB-231 > 100 µM | MOLT-4 > 100 µM | Hs-578T > 100 µM | SF-539 > 100 µM | SR > 100 µM | T47D 30.1 µM | MCF7 > 100 µM | OVCAR-5 > 100 µM | KM12 > 100 µM | LOX IMVI > 100 µM | SNB-19 > 100 µM | NCI-H226 > 100 µM | NCI/ADR-RES > 100 µM | TK-10 > 100 µM | BT-549 > 100 µM | SK-MEL-2 > 100 µM | HOP-62 > 100 µM | UACC-257 > 100 µM | NCI-H460 > 100 µM | PC-3 > 100 µM | SK-MEL-28 > 100 µM | CCRF-CEM > 100 µM | U-251 > 100 µM | A549 > 100 µM | K562 > 100 µM | NCI-H522 > 100 µM | HOP-92 > 100 µM | OVCAR-8 > 100 µM
> 100 µM: HCT-15
